Test results taken from patent publication US20130096116A1, “TREATMENT OF PHARMACOLOGICAL-INDUCED HYPOCHLORHYDRIA” (Genentech, Inc., priority 2011, published 2013).
In brackets after ≈: the same amount, converted by molar mass. Structures can show the parent of a compound that is named as a salt. Where two headings read alike, the source gives them in different places.

Experiments:
[1] = Oral exposure of dasatinib and gastric pH in dogs with famotidine, pentagastrin or betaine HCl pretreatment; format: in vivo, beagle dogs
Method: Dogs were treated with dasatinib 50 mg tablet (Example 5). Dogs in each group received the following pretreatment: Group 1: no pretreatment (control); Group 2: famotidine 40 mg tablet orally, 3 hours prior to dasatinib; Group 3: pentagastrin by intramuscular injection (6 mg/kg) 30 min before dasatinib administration; Groups 4 and 5: Two betaine HCl 750 mg tablets were administered to the two groups as follows: one betaine HCl tablet orally 5 min before dasatinib and the other 20 min before dasatinib Group 5 was also treated with famotidine 40 mg tablet orally, 3 hours prior to dasatinib. […] Betaine HCl performs as well as pentagastrin, and improves dasatinib/famotidine exposure (AUC, FIG. 5C).
Dasatinib pharmacokinetics was evaluated in dogs with famotidine-induced hypochlorhydria (FIG. 5A). Dasatinib was administered as a 50 mg SPRYCEL® (Bristol-Myers Squibb) tablet. Famotidine 40 mg tablets were administered 3 hrs before dasatinib. Pentagastrin injection was administered intramuscularly 30 min prior before dasatinib administration. Two betaine HCl 750 mg tablets administered at the following times: 1 orally 20 min and 5 min prior to dasatinib administration.
Five groups of naïve, male beagle dogs (n=4 per group) each received a different pretreatment prior to dasatinib treatment.
(§1) Group 1: no pretreatment (control)
Group 2: famotidine 40 mg tablet orally, 3 hours prior to dasatinib
Group 3: pentagastrin by intramuscular injection (6 mg/kg) 30 min before dasatinib administration
Groups 4 and 5: Two betaine HCl 750 mg tablets were administered to the two groups as follows: one betaine HCl tablet orally 5 min before dasatinib and the other 20 min before dasatinib
Group 5: famotidine 40 mg tablet orally, 3 hours prior to dasatinib.

[2] = cited from earlier work
[3] = cited from earlier work; remark: listed apart in the source
[4] = cited from earlier work; remark: listed apart in the source
[5] = 100 mg dasatinib after 40 mg omeprazole daily for 4 days; cited from earlier work
[6] = cited from earlier work; remark: listed apart in the source
[7] = Oral exposure of GDC-0941 in dogs with famotidine, pentagastrin or betaine HCl pretreatment; format: in vivo; settings: male, beagle, dog, plasma, 40 mg, 40 mg oral
Method: Group 2 dogs were pretreated with famotidine 40 mg tablet to induce hypochlorhydria and as a negative control. Group 3 dogs were pretreated with pentagastrin by intramuscular injection 6 mg/kg. Pentagastrin is a synthetic peptide which stimulates the secretion of […], pepsin, and intrinsic factor, and lowers the pH of the gut through physiologic stimulation of acid secretion. […] Group 5 dogs were pretreated with famotidine, then treated with betaine HCl, 2×750 mg tablets.
as §1

[8] = Effect of rabeprazole on pharmacokinetics of GDC-0941 in patients with advanced solid tumors; format: in vivo; settings: cancer patients pretreated with rabeprazole 20 mg Days 4-8, Day 8 vs Day 1
[9] = pH solubility profile of GDC-0941 (shake flask method); format: physicochemical; settings: 50 mM USP buffer, aqueous buffer, thermodynamic from solid, 48 hours at 37° C.
Method: The solubility test was conducted using the shake flask method. […] Each sample was prepared at a volume of approximately 2 mL, with excess solid in each sample. […] Samples were then filtered and concentrations were determined by HPLC under reversed-phase conditions using a C18 column, and elution with a phosphate buffer (pH 6.5), acetonitrile gradient. The injection volume was 5 μL, with a flow rate of 1.2 mL/min and detection at 230 nm.

[10] = media with enough betaine HCl to lower the pH to 2.4 or below
gastric pH = test: Gastric pH (Heidelberg capsule) after betaine HCl in healthy volunteers with rabeprazole-induced hypochlorhydria; format: in vivo
Method: The pH of the stomach was measured over time with a Heidelberg capsule with tether swallowed at t=0. […] Onset of effect of betaine HCl was rapid, with a mean time to pH<3 of 6.3 (±4.3) min, and its duration was adequate but temporary, with a gastric pH<3 and <4 lasting 72.5 (±32.9) and 76.8 (±30.4) min, respectively.
Dasatinib pharmacokinetics was evaluated in healthy volunteer subjects with rabeprazole-induced hypochlorhydria by dosing 20 mg oral rabeprazole twice daily for 4 days. On the morning (a.m.) of study day 5, subjects received an additional 20 mg oral rabeprazole, and the Heidelberg Capsule pH diagnostic system (HC) was used for continuous gastric pH monitoring. When gastric pH remained >4 for at least 15 min, a 1500 mg dose of betaine HCl was given orally, and gastric pH was monitored for 2 h. During part 2 of this study a 3-period crossover study, five of ten subjects each received: (A) 100 mg dasatinib (Control); (B) 100 mg dasatinib after rabeprazole pre-treatment; (C) 100 mg dasatinib, 1500 mg betaine HCl, after rabeprazole pre-treatment. For treatments B+C, 20 mg rabeprazole twice daily was given for 3 days prior to and on the a.m. of each study day. Gastric pH was monitored and DAS plasma concentrations were measured over 22 h (see study schematic below) with dasatinib concentration versus time results shown in FIG. 8A and exposure (AUC) in FIG. 8B.

[11] = single 50-mg dose 10 hours following 40 mg of famotidine

Structure (SMILES): NC(N)=Nc1nc(CSCCC(N)=NS(N)(=O)=O)cs1 [famotidine]
- effect on gastric pH ([1]; dogs pretreated with famotidine 40 mg): significant hypochlorhydria (increased gastric pH)

Structure (SMILES): Cc1nc(Nc2ncc(C(=O)Nc3c(C)cccc3Cl)s2)cc(N2CCN(CCO)CC2)n1 [dasatinib, Dasatinib]
- solubility ([2]; pH 2.6, 24° C.): ~18000 µg/mL (≈ 36900 µM)
- solubility ([2]; pH 4.0, 24° C.): ~690 µg/mL (≈ 1410 µM)
- solubility ([2]; pH 4.28, 24° C.): 205 µg/mL (≈ 420 µM)
- solubility ([2]; pH 7.0, 24° C.): < 1 µg/mL
- solubility of highest commercial dose strength (140 mg) in 250 mL of water ([2]; pH range of 4.3 to 7.0 at 24° C.): not soluble
- between-subject variability in Ka ([3]; in vivo): exceeded 100%
- between-subject variability in relative bioavailability (FR) ([3]; in vivo): 33%
- inter-occasion variability (IOV) within a subject in FR ([3]; in vivo): 44%
- decrease of FR with use of PPI ([3]; not statistically significant): 17%
- increase in AUCinf ([4]; high fat meal): 14%
- increase in AUCinf ([4]; low fat meal): 21%
- decrease of AUCinf [5]: 43%
- decrease of Cmax [5]: 42%
- reduction of bioavailability [5]: ~40%
- exposure ([6]; Maalox 30 mL administered 2 hours prior to dasatinib): unchanged
- reduction of bioavailability (AUC) ([6]; dasatinib 50 mg BID, famotidine 40 mg 10 hours prior): 61%
- reduction of AUC0-12 [6, 11]: ~60%
- reduction of Cmax [6, 11]: ~60%
- dasatinib levels ([1]; dogs, dasatinib+famotidine without betaine HCl, 50 mg tablet): at or below the limits of assay detection

Structure (SMILES): CS(=O)(=O)N1CCN(Cc2cc3nc(-c4cccc5[nH]ncc45)nc(N4CCOCC4)c3s2)CC1 [GDC-0941, 4-(2-(1H-indazol-4-yl)-6-((4-(methylsulfonyl)piperazin-1-yl)methyl)thieno[3,2-d]pyrimidin-4-yl)morpholine]
- AUC ([7]; Group 4 (betaine HCl only pretreatment)): 7.38 µM·h
- AUC ([7]; Group 5 (famotidine+betaine HCl), excluding animal D501 (n=3)): 7.12 µM·h
- decrease of GDC-0941 (AUC, FIG. 7) [8]: 40%
- solubility at 48 h ([9]; all tested pH values above pH 4.4, read-out: measured solubility): ~1 µg/mL (≈ 1.95 µM)
- solubility at 48 h ([9]; pH 1.0, read-out: solubility): ~800 µg/mL (≈ 1560 µM)
- solubility at 48 h ([9]; pH 3.0, read-out: solubility): ~8 µg/mL (≈ 15.6 µM)
- solubility at 48 h ([9]; pH 7.5, read-out: solubility): < 1 µg/mL
- drug rapidly dissolved and maintained in solution [10]: greater than 90%

Structure (SMILES): C[N+](C)(C)CC(=O)O [betaine HCl, Betaine hydrochloride]
- lowering of gastric pH (gastric pH; 30 min interval after dosing 1500 mg, N=6): 4.54 (±0.46) units
- duration of gastric pH<3 (gastric pH; after 1500 mg betaine HCl): 72.5 (±32.9) min
- duration of gastric pH<4 (gastric pH; after 1500 mg betaine HCl): 76.8 (±30.4) min
- mean time to pH<3 (gastric pH; after 1500 mg betaine HCl): 6.3 (±4.3) min
- effect on gastric pH ([1]; dogs treated with famotidine+betaine HCl): reversal of hypochlorhydria
